Values joined by “and” are separate entries in the source; they are usually repeats but may differ in a detail not shown here. Equal entries are not always repeated.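 1) Cells in 96-well plates. 2) Compound, 48 h, 5 concentrations. 3) Linear interpolation between surrounding doses. 4) Unreached endpoint = highest concentration. Here, GI50 denotes the concentration required for 50% inhibition of growth. Definition used: TGI = concentration required for complete inhibition of growth.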
Experiments:
Test in all cases: NCI anticancer screen, dose series, 48 h
SNB-19 CNS = test system: SNB-19 CNS
CAKI-1 renal = test system: CAKI-1 renal
HS 578T breast = test system: HS 578T breast
M19-MEL melanoma = test system: M19-MEL melanoma
HCT-116 colon = test system: HCT-116 colon
OVCAR-3 ovarian = test system: OVCAR-3 ovarian
HCT-15 colon = test system: HCT-15 colon
COLO 205 colon = test system: COLO 205 colon
DU-145 prostate = test system: DU-145 prostate
PC-3 prostate = test system: PC-3 prostate
KM20L2 colon = test system: KM20L2 colon
HOP-92 NSCLC = test system: HOP-92 NSCLC
M14 melanoma = test system: M14 melanoma
A549 NSCLC = test system: A549 NSCLC
DLD-1 colon = test system: DLD-1 colon
SNB-78 CNS = test system: SNB-78 CNS
XF 498 CNS = test system: XF 498 CNS
NCI-H226 lung = test system: NCI-H226 lung
OVCAR-8 ovarian = test system: OVCAR-8 ovarian
HT29 colon = test system: HT29 colon
RXF 393 renal = test system: RXF 393 renal

SMILES: O=NN(CCCl)C(=O)NCCCl
- GI50 (SNB-19 CNS): 61.1 µM and 169 µM
- TGI (SNB-19 CNS): 250 µM and 168 µM and > 380 µM
- GI50 (CAKI-1 renal): 44.9 µM and 186 µM
- TGI (CAKI-1 renal): 103 µM and 150 µM and > 278 µM
- GI50 (HS 578T breast): 122 µM and 252 µM
- TGI (HS 578T breast): 205 µM and 231 µM and > 317 µM
- TGI (M19-MEL melanoma): 160 µM
- GI50 (HCT-116 colon): 62.5 µM and 112 µM
- TGI (HCT-116 colon): 155 µM and 156 µM and 256 µM
- GI50 (OVCAR-3 ovarian): 63.9 µM and > 295 µM
- TGI (OVCAR-3 ovarian): 152 µM and 159 µM and > 372 µM
- GI50 (HCT-15 colon): 52.7 µM and 121 µM
- TGI (HCT-15 colon): 127 µM and 150 µM and > 267 µM
- GI50 (COLO 205 colon): 47.2 µM and 202 µM
- TGI (COLO 205 colon): 90.2 µM and 144 µM and > 286 µM
- GI50 (DU-145 prostate): 95 µM and 296 µM
- TGI (DU-145 prostate): 250 µM and 364 µM and > 377 µM
- GI50 (PC-3 prostate): > 305 µM
- TGI (PC-3 prostate): 209 µM and > 390 µM
- TGI (KM20L2 colon): 205 µM
- GI50 (HOP-92 NSCLC): 193 µM
- TGI (HOP-92 NSCLC): 151 µM and > 262 µM
- GI50 (M14 melanoma): 215 µM
- TGI (M14 melanoma): 234 µM and 158 µM and > 308 µM
- GI50 (A549 NSCLC): 210 µM
- TGI (A549 NSCLC): 250 µM and 313 µM and > 379 µM
- TGI (DLD-1 colon): 176 µM
- TGI (SNB-78 CNS): 198 µM
- TGI (XF 498 CNS): 135 µM
- GI50 (NCI-H226 lung): 147 µM and 207 µM
- TGI (NCI-H226 lung): 250 µM and > 383 µM
- GI50 (OVCAR-8 ovarian): 51.3 µM and > 320 µM
- TGI (OVCAR-8 ovarian): 164 µM and 197 µM and > 437 µM
- GI50 (HT29 colon): 56.4 µM and 209 µM
- TGI (HT29 colon): 133 µM and 166 µM and > 361 µM
- GI50 (RXF 393 renal): 45.3 µM and > 238 µM
- TGI (RXF 393 renal): 86.6 µM and 149 µM and > 299 µM
